The values below are quoted from earlier work in patent publication US20080248140A1, “COMPOSITION FOR SUPPORTING RESTFUL SLEEP” (priority 2007, published 2008).

The test system of one series is GABA(A) receptor. The conditions noted are these: activity produced by muscimol; Yuan et al. 2004.
The conditions of series [1]: normal subjects (Mayer et al. 1996).

For the molecule `CC1=C2[C@H](/C=C(\C)C(=O)O)CC[C@@H](C)[C@H]2CC1` [Valerinic acid], the “neural activity in the brainstem” value in the series on GABA(A) receptor is “decrease neural activity in the brainstem”. Turning to `C/C1=C2/[N-][C@H]([C@H](CC(N)=O)[C@@]2(C)CCC(=O)NC[C@@H](C)OP(=O)([O-])O[C@H]2[C@@H](O)[C@@H](n3cnc4cc(C)c(C)cc43)O[C@@H]2CO)[C@]2(C)N=C(/C(C)=C3N=C(/C=C4N=C1[C@@H](CCC(N)=O)C\4(C)C)[C@@H](CCC(N)=O)[C@]\3(C)CC(N)=O)[C@@H](CCC(N)=O)[C@]2(C)CC(N)=O.[CH3-].[Co+3]` [Methylcobalamin], the “quality of sleep and post-sleep restfulness” value in series [1] was “increases in the quality of sleep and feelings of post-sleep restfulness”.
